We go through two compounds from patent publication US20140328930A1, “Pharmaceutical Compositions” (Alpharma Pharmaceuticals, LLC, priority 2007, published 2014).

SMILES strings stand for the structures. Where a name gives a salt, the structure may show the parent alone.

The conditions of data set [1]: cited from earlier work.
Data set [2] can be described thus: clinical. The note with it: human, in vivo, 2.4 mg.
The conditions of data set [3]: single dose 2.4 mg naltrexone, fasted.

On to `O=C1CC[C@@]2(O)[C@H]3Cc4ccc(O)c5c4[C@@]2(CCN3CC2CC2)[C@H]1O5` [naltrexone], for which the Protein binding entry in data set [1] (in vivo) is “approximately 21%”. For the same compound, the Oral bioavailability in data set [1] (oral) was 5-40%.
In the case of `O=C1CC[C@@]2(O)[C@H]3Cc4ccc(O)c5c4[C@@]2(CCN3CC2CC2)[C@H]1O5` [Naltrexone HCl Solution], in data set [2], the Tmax was determined as 1.13 h, the concentration at 0 h was 0 ng/mL, the concentration at 0.5 h amounted to 0.455 ng/mL and the concentration at 1 h came to 0.629 ng/mL. In data set [2], this compound returned a concentration at 2 h of 0.465 ng/mL, a concentration at 3 h of 0.286 ng/mL, a concentration at 4 h of 0.182 ng/mL and a concentration at 5 h of 0.133 ng/mL. In data set [2], this compound came in with a concentration at 6 h of 0.0957 ng/mL, a concentration at 8 h of 0.0518 ng/mL, a concentration at 10 h of 0.0287 ng/mL and a concentration at 12 h of 0.0205 ng/mL. In data set [2], the concentration at 16 h is 0.00996 ng/mL, the concentration at 24 h stood at 0.00316 ng/mL, the concentration at 36 h came out at 0.000607 ng/mL and the concentration at 48 h was 0 ng/mL. For the same compound, in data set [2], the concentration at 60 h was determined as 0 ng/mL, the concentration at 72 h came out at 0 ng/mL, the concentration at 84 h was 0 ng/mL and the concentration at 96 h was 0 ng/mL. This compound also came in with a concentration at 120 h in data set [2] of 0 ng/mL. For the same compound, the AUC(0-t) in data set [2] (Naltrexone AUC0-t, Mean, single dose 2.4 mg naltrexone, fasted) is 2.2 ng·h/mL. In addition, the AUC(0-inf) in data set [2] (Naltrexone AUCinf, Mean, single dose 2.4 mg naltrexone, fasted) was 2.24 ng·h/mL. The concentration in data set [2] (Naltrexone Cmax, Mean, single dose 2.4 mg naltrexone, fasted) peaked (Cmax) at 0.689 ng/mL. In data set [2] (Naltrexone ln(AUCinf), Geometric Mean, Least Squares Mean of log-transformed values), this compound had an AUC(0-inf) of 1.99 ng·h/mL. In data set [2] (Naltrexone ln(AUClast), Geometric Mean, Least Squares Mean of log-transformed values), the AUC(0-t) came out at 1.95 ng·h/mL. The compound also gave a Cmax in data set [2] (Naltrexone ln(Cmax), Geometric Mean, Least Squares Mean of log-transformed values) of 0.58 ng/mL. In data set [3], the “Naltrexone Tlast, Mean” value is 20.00 h and the “Naltrexone λz, Mean” value came to 0.2013 h⁻¹.

The Tmax is the time from dosing to the highest level. In general, AUC(0-t) refers to the area under the concentration-time curve up to a stated or last time point. The low end stands for less exposure, the high end for more exposure. As a reminder, the AUC(0-inf) is total exposure, with the tail of the curve extrapolated. Higher therefore signals more exposure. The term Cmax denotes the highest concentration seen after dosing.
